Assay results as given in US4245106A, “Process for the preparation of 1-alkyl-3-aryl-4-pyrazolecarboxylates” (Monsanto Company, priority 1979, dated 1981).

Tests used:
Assay type in all cases: in vivo
Canada Thistle [1] = assay: pre-emergent herbicidal activity test
Summary of the method: (§1)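 Greenhouse pan test, soil-incorporated pre-emergence treatment: a known amount of active ingredient in solvent or as wettable powder was blended into the covering soil. Damage to each species was graded on a rating code.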

Morningglory [2] = assay: pre-emergent herbicidal activity test
Summary of the method: as §1

Bromus tectorum [3] = assay: pre-emergent herbicidal activity test
Summary of the method: as §1

Johnsongrass [4] = assay: pre-emergent herbicidal activity test
Summary of the method: as §1

Smartweed [5] = assay: pre-emergent herbicidal activity test
Summary of the method: as §1

Quackgrass [6] = assay: pre-emergent herbicidal activity test
Summary of the method: as §1

Barnyard grass [7] = assay: pre-emergent herbicidal activity test
Summary of the method: as §1

Velvetleaf [8] = assay: pre-emergent herbicidal activity test
Summary of the method: as §1

Nutsedge [9] = assay: pre-emergent herbicidal activity test
Summary of the method: as §1

Lambsquarter [10] = assay: pre-emergent herbicidal activity test
Summary of the method: as §1

Cocklebur [11] = assay: pre-emergent herbicidal activity test
Summary of the method: as §1

Canada Thistle [12] = assay: post-emergent herbicidal activity test
Summary of the method: (§2)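 Greenhouse post-emergence spray test: active ingredient with surfactant, applied at the desired rate to 2–3-week-old plants. Response was scored on a rating code at approximately four weeks, unless otherwise noted.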

Morningglory [13] = assay: post-emergent herbicidal activity test
Summary of the method: as §2

Bromus tectorum [14] = assay: post-emergent herbicidal activity test
Summary of the method: as §2

Johnsongrass [15] = assay: post-emergent herbicidal activity test
Summary of the method: as §2

Smartweed [16] = assay: post-emergent herbicidal activity test
Summary of the method: as §2

Quackgrass [17] = assay: post-emergent herbicidal activity test
Summary of the method: as §2

Barnyard grass [18] = assay: post-emergent herbicidal activity test
Summary of the method: as §2

Velvetleaf [19] = assay: post-emergent herbicidal activity test
Summary of the method: as §2

Nutsedge [20] = assay: post-emergent herbicidal activity test
Summary of the method: as §2

Lambsquarter [21] = assay: post-emergent herbicidal activity test
Summary of the method: as §2

Cocklebur [22] = assay: post-emergent herbicidal activity test
Summary of the method: as §2

[23] = *11.2 Kg/Ha, observed approximately 14 days after treatment
[24] = 11.2 Kg/Ha, approximately 28 days after seeding and treating
[25] = 11.2 Kg/Ha, approximately four weeks later
Also: ranges in brackets are in %.

Cn1cc(C(=O)OCCOc2ccccc2)c(-c2cccc(C(F)(F)F)c2)n1 [Example 22]
Pre-Emergent herbicidal rating, A Canada Thistle (Canada Thistle [1]; [23]): 3 (75-100)
Pre-Emergent herbicidal rating, D Morningglory (Morningglory [2]; [23]): 1 (25-49)
Pre-Emergent herbicidal rating, J Bromus tectorum (Bromus tectorum [3]; [23]): 0 (0-24)
Pre-Emergent herbicidal rating, I Johnsongrass (Johnsongrass [4]; [23]): 0 (0-24)
Pre-Emergent herbicidal rating, F Smartweed (Smartweed [5]; [23]): 0 (0-24)
Pre-Emergent herbicidal rating, H Quackgrass (Quackgrass [6]; [23]): 0 (0-24)
Pre-Emergent herbicidal rating, K Barnyard grass (Barnyard grass [7]; [23]): 0 (0-24)
Pre-Emergent herbicidal rating, C Velvetleaf (Velvetleaf [8]; [23]): 0 (0-24)
Pre-Emergent herbicidal rating, G Nutsedge (Nutsedge [9]; [23]): 0 (0-24)
Pre-Emergent herbicidal rating, E Lambsquarter (Lambsquarter [10]; [23]): 3 (75-100)
Pre-Emergent herbicidal rating, B Cocklebur (Cocklebur [11]; [23]): 0 (0-24)
Post-Emergent herbicidal rating, A Canada Thistle (Canada Thistle [12]; [23]): 1 (25-49)
Post-Emergent herbicidal rating, D Morningglory (Morningglory [13]; [23]): 0 (0-24)
Post-Emergent herbicidal rating, J Bromus tectorum (Bromus tectorum [14]; [23]): 0 (0-24)
Post-Emergent herbicidal rating, I Johnsongrass (Johnsongrass [15]; [23]): 0 (0-24)
Post-Emergent herbicidal rating, F Smartweed (Smartweed [16]; [23]): 0 (0-24)
Post-Emergent herbicidal rating, H Quackgrass (Quackgrass [17]; [23]): 0 (0-24)
Post-Emergent herbicidal rating, K Barnyard grass (Barnyard grass [18]; [23]): 0 (0-24)
Post-Emergent herbicidal rating, C Velvetleaf (Velvetleaf [19]; [23]): 0 (0-24)
Post-Emergent herbicidal rating, G Nutsedge (Nutsedge [20]; [23]): 0 (0-24)
Post-Emergent herbicidal rating, E Lambsquarter (Lambsquarter [21]; [23]): 0 (0-24)
Post-Emergent herbicidal rating, B Cocklebur (Cocklebur [22]; [23]): 0 (0-24)

CCSCCOC(=O)c1cn(C)nc1-c1cccc(C(F)(F)F)c1 [Example 23]
Pre-Emergent herbicidal rating, A Canada Thistle (Canada Thistle [1]; [23]): 0 (0-24)
Pre-Emergent herbicidal rating, D Morningglory (Morningglory [2]; [23]): 1 (25-49)
Pre-Emergent herbicidal rating, J Bromus tectorum (Bromus tectorum [3]; [23]): 1 (25-49)
Pre-Emergent herbicidal rating, I Johnsongrass (Johnsongrass [4]; [23]): 0 (0-24)
Pre-Emergent herbicidal rating, F Smartweed (Smartweed [5]; [23]): 1 (25-49)
Pre-Emergent herbicidal rating, H Quackgrass (Quackgrass [6]; [23]): 0 (0-24)
Pre-Emergent herbicidal rating, K Barnyard grass (Barnyard grass [7]; [23]): 1 (25-49)
Pre-Emergent herbicidal rating, C Velvetleaf (Velvetleaf [8]; [23]): 1 (25-49)
Pre-Emergent herbicidal rating, G Nutsedge (Nutsedge [9]; [23]): 0 (0-24)
Pre-Emergent herbicidal rating, E Lambsquarter (Lambsquarter [10]; [23]): 3 (75-100)
Pre-Emergent herbicidal rating, B Cocklebur (Cocklebur [11]; [23]): 0 (0-24)
Post-Emergent herbicidal rating, A Canada Thistle (Canada Thistle [12]; [23]): 1 (25-49)
Post-Emergent herbicidal rating, D Morningglory (Morningglory [13]; [23]): 1 (25-49)
Post-Emergent herbicidal rating, J Bromus tectorum (Bromus tectorum [14]; [23]): 0 (0-24)
Post-Emergent herbicidal rating, I Johnsongrass (Johnsongrass [15]; [23]): 0 (0-24)
Post-Emergent herbicidal rating, F Smartweed (Smartweed [16]; [23]): 1 (25-49)
Post-Emergent herbicidal rating, H Quackgrass (Quackgrass [17]; [23]): 1 (25-49)
Post-Emergent herbicidal rating, K Barnyard grass (Barnyard grass [18]; [23]): 1 (25-49)
Post-Emergent herbicidal rating, C Velvetleaf (Velvetleaf [19]; [23]): 1 (25-49)
Post-Emergent herbicidal rating, G Nutsedge (Nutsedge [20]; [23]): 0 (0-24)
Post-Emergent herbicidal rating, E Lambsquarter (Lambsquarter [21]; [23]): 2 (50-74)
Post-Emergent herbicidal rating, B Cocklebur (Cocklebur [22]; [23]): 1 (25-49)

CCCCOC(=O)c1cn(C)nc1-c1cccc(C(F)(F)F)c1 [Example 30]
Pre-Emergent herbicidal rating, A Canada Thistle (Canada Thistle [1]; [24]): 2 (50-74)
Pre-Emergent herbicidal rating, D Morningglory (Morningglory [2]; [24]): 0 (0-24)
Pre-Emergent herbicidal rating, J Bromus tectorum (Bromus tectorum [3]; [24]): 2 (50-74)
Pre-Emergent herbicidal rating, I Johnsongrass (Johnsongrass [4]; [24]): 0 (0-24)
Pre-Emergent herbicidal rating, F Smartweed (Smartweed [5]; [24]): 3 (75-100)
Pre-Emergent herbicidal rating, H Quackgrass (Quackgrass [6]; [24]): 0 (0-24)
Pre-Emergent herbicidal rating, K Barnyard grass (Barnyard grass [7]; [24]): 3 (75-100)
Pre-Emergent herbicidal rating, C Velvetleaf (Velvetleaf [8]; [24]): 1 (25-49)
Pre-Emergent herbicidal rating, G Nutsedge (Nutsedge [9]; [24]): 0 (0-24)
Pre-Emergent herbicidal rating, E Lambsquarter (Lambsquarter [10]; [24]): 3 (75-100)
Pre-Emergent herbicidal rating, B Cocklebur (Cocklebur [11]; [24]): 0 (0-24)
Post-Emergent herbicidal rating, A Canada Thistle (Canada Thistle [12]; [25]): 0 (0-24)
Post-Emergent herbicidal rating, D Morningglory (Morningglory [13]; [25]): 1 (25-49)
Post-Emergent herbicidal rating, J Bromus tectorum (Bromus tectorum [14]; [25]): 1 (25-49)
Post-Emergent herbicidal rating, I Johnsongrass (Johnsongrass [15]; [25]): 1 (25-49)
Post-Emergent herbicidal rating, F Smartweed (Smartweed [16]; [25]): 0 (0-24)
Post-Emergent herbicidal rating, H Quackgrass (Quackgrass [17]; [25]): 0 (0-24)
Post-Emergent herbicidal rating, K Barnyard grass (Barnyard grass [18]; [25]): 1 (25-49)
Post-Emergent herbicidal rating, C Velvetleaf (Velvetleaf [19]; [25]): 1 (25-49)
Post-Emergent herbicidal rating, G Nutsedge (Nutsedge [20]; [25]): 0 (0-24)
Post-Emergent herbicidal rating, E Lambsquarter (Lambsquarter [21]; [25]): 3 (75-99)
Post-Emergent herbicidal rating, B Cocklebur (Cocklebur [22]; [25]): 1 (25-49)

CCOC(=O)c1cn(C)nc1-c1ccc(OC)cc1 [Example 31]
Pre-Emergent herbicidal rating, A Canada Thistle (Canada Thistle [1]; [23]): 0 (0-24)
Pre-Emergent herbicidal rating, D Morningglory (Morningglory [2]; [23]): 0 (0-24)
Pre-Emergent herbicidal rating, J Bromus tectorum (Bromus tectorum [3]; [23]): 0 (0-24)
Pre-Emergent herbicidal rating, I Johnsongrass (Johnsongrass [4]; [23]): 0 (0-24)
Pre-Emergent herbicidal rating, F Smartweed (Smartweed [5]; [23]): 0 (0-24)
Pre-Emergent herbicidal rating, H Quackgrass (Quackgrass [6]; [23]): 0 (0-24)
Pre-Emergent herbicidal rating, K Barnyard grass (Barnyard grass [7]; [23]): 0 (0-24)
Pre-Emergent herbicidal rating, C Velvetleaf (Velvetleaf [8]; [23]): 0 (0-24)
Pre-Emergent herbicidal rating, G Nutsedge (Nutsedge [9]; [23]): 0 (0-24)
Pre-Emergent herbicidal rating, E Lambsquarter (Lambsquarter [10]; [23]): 0 (0-24)
Pre-Emergent herbicidal rating, B Cocklebur (Cocklebur [11]; [23]): 0 (0-24)
Post-Emergent herbicidal rating, A Canada Thistle (Canada Thistle [12]; [25]): 0 (0-24)
Post-Emergent herbicidal rating, D Morningglory (Morningglory [13]; [25]): 1 (25-49)
Post-Emergent herbicidal rating, J Bromus tectorum (Bromus tectorum [14]; [25]): 0 (0-24)
Post-Emergent herbicidal rating, I Johnsongrass (Johnsongrass [15]; [25]): 0 (0-24)
Post-Emergent herbicidal rating, F Smartweed (Smartweed [16]; [25]): 4 (100)
Post-Emergent herbicidal rating, H Quackgrass (Quackgrass [17]; [25]): 0 (0-24)
Post-Emergent herbicidal rating, K Barnyard grass (Barnyard grass [18]; [25]): 1 (25-49)
Post-Emergent herbicidal rating, C Velvetleaf (Velvetleaf [19]; [25]): 1 (25-49)
Post-Emergent herbicidal rating, G Nutsedge (Nutsedge [20]; [25]): 0 (0-24)
Post-Emergent herbicidal rating, E Lambsquarter (Lambsquarter [21]; [25]): 4 (100)
Post-Emergent herbicidal rating, B Cocklebur (Cocklebur [22]; [25]): 0 (0-24)
